PubChem BioAssay (NCI)
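96-well plates; 48 h exposure; 5 concentrations. Endpoints by linear interpolation between flanking doses. Not reached: highest tested concentration assigned. The concentration for 50% growth inhibition is given as GI50. TGI denotes the concentration required for complete inhibition of growth.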

How the values were obtained:
Test in all cases: inhibition of tumour cell growth, NCI panel, 48 h
786-0 renal = test system: 786-0 renal
A498 renal = test system: A498 renal
A549 NSCLC = test system: A549 NSCLC
ACHN renal = test system: ACHN renal
BT-549 breast = test system: BT-549 breast
CAKI-1 renal = test system: CAKI-1 renal
CCRF-CEM leukemia = test system: CCRF-CEM leukemia
COLO 205 colon = test system: COLO 205 colon
DU-145 prostate = test system: DU-145 prostate
EKVX NSCLC = test system: EKVX NSCLC
HCC-2998 colon = test system: HCC-2998 colon
HCT-116 colon = test system: HCT-116 colon
HCT-15 colon = test system: HCT-15 colon
HL-60(TB) leukemia = test system: HL-60(TB) leukemia
HOP-62 NSCLC = test system: HOP-62 NSCLC
HOP-92 NSCLC = test system: HOP-92 NSCLC
HS 578T breast = test system: HS 578T breast
HT29 colon = test system: HT29 colon
IGROV1 ovarian = test system: IGROV1 ovarian
K-562 leukemia = test system: K-562 leukemia
KM12 colon = test system: KM12 colon
LOX IMVI melanoma = test system: LOX IMVI melanoma
M14 melanoma = test system: M14 melanoma
MALME-3M melanoma = test system: MALME-3M melanoma
MCF7 breast = test system: MCF7 breast
MDA-MB-231 breast = test system: MDA-MB-231 breast
MDA-MB-435 = test system: MDA-MB-435
MOLT-4 leukemia = test system: MOLT-4 leukemia
NCI-H226 lung = test system: NCI-H226 lung
NCI-H23 lung = test system: NCI-H23 lung
NCI-H460 lung = test system: NCI-H460 lung
NCI-H522 lung = test system: NCI-H522 lung
NCI/ADR-RES ovarian = test system: NCI/ADR-RES ovarian
OVCAR-3 ovarian = test system: OVCAR-3 ovarian
OVCAR-4 ovarian = test system: OVCAR-4 ovarian
OVCAR-5 ovarian = test system: OVCAR-5 ovarian
OVCAR-8 ovarian = test system: OVCAR-8 ovarian
PC-3 prostate = test system: PC-3 prostate
SF-268 CNS = test system: SF-268 CNS
SF-295 CNS = test system: SF-295 CNS
SF-539 CNS = test system: SF-539 CNS
SK-MEL-2 melanoma = test system: SK-MEL-2 melanoma
SK-MEL-28 melanoma = test system: SK-MEL-28 melanoma
SK-MEL-5 melanoma = test system: SK-MEL-5 melanoma
SK-OV-3 ovarian = test system: SK-OV-3 ovarian
SN12C renal = test system: SN12C renal
SNB-19 CNS = test system: SNB-19 CNS
SNB-75 CNS = test system: SNB-75 CNS
SR leukemia = test system: SR leukemia
SW-620 colon = test system: SW-620 colon
T-47D breast = test system: T-47D breast
TK-10 renal = test system: TK-10 renal
U251 CNS = test system: U251 CNS
UACC-257 melanoma = test system: UACC-257 melanoma
UACC-62 melanoma = test system: UACC-62 melanoma
UO-31 renal = test system: UO-31 renal

C#C[C@]1(O)CC[C@H]2[C@@H]3CC=C4c5sc(-c6ccc7c(c6)OCO7)nc5CC[C@]4(C)[C@H]3CC[C@@]21C
GI50 (786-0 renal): 0.841 µM | TGI (786-0 renal): 3.78 µM | GI50 (A498 renal): 1.63 µM | TGI (A498 renal): 7.49 µM | GI50 (A549 NSCLC): 2.76 µM | TGI (A549 NSCLC): 8.48 µM | GI50 (ACHN renal): 2.11 µM | TGI (ACHN renal): 5.57 µM | GI50 (BT-549 breast): 1.99 µM | TGI (BT-549 breast): 5.67 µM | GI50 (CAKI-1 renal): 2.63 µM | TGI (CAKI-1 renal): 8.37 µM | GI50 (CCRF-CEM leukemia): 2.8 µM | TGI (CCRF-CEM leukemia): > 100 µM | GI50 (COLO 205 colon): 3.87 µM | TGI (COLO 205 colon): 27.8 µM | GI50 (DU-145 prostate): 3.45 µM | TGI (DU-145 prostate): 70.5 µM | GI50 (EKVX NSCLC): 3.55 µM | TGI (EKVX NSCLC): 73.5 µM | GI50 (HCC-2998 colon): 5.56 µM | TGI (HCC-2998 colon): > 100 µM | GI50 (HCT-116 colon): 1.84 µM | TGI (HCT-116 colon): 5.3 µM | GI50 (HCT-15 colon): 1.93 µM | TGI (HCT-15 colon): 6.28 µM | GI50 (HL-60(TB) leukemia): 3.8 µM | TGI (HL-60(TB) leukemia): > 100 µM | GI50 (HOP-62 NSCLC): 2.53 µM | TGI (HOP-62 NSCLC): 7.94 µM | GI50 (HOP-92 NSCLC): 8.39 µM | TGI (HOP-92 NSCLC): 29.8 µM | GI50 (HS 578T breast): 0.501 µM | TGI (HS 578T breast): 3.98 µM | GI50 (HT29 colon): 2.32 µM | TGI (HT29 colon): 7.65 µM | GI50 (IGROV1 ovarian): 2.98 µM | TGI (IGROV1 ovarian): 8.3 µM | GI50 (K-562 leukemia): 3.53 µM | TGI (K-562 leukemia): > 100 µM | GI50 (KM12 colon): 3.46 µM | TGI (KM12 colon): 31.1 µM | GI50 (LOX IMVI melanoma): 1.73 µM | TGI (LOX IMVI melanoma): 4.3 µM | GI50 (M14 melanoma): 1.73 µM | TGI (M14 melanoma): 5.34 µM | GI50 (MALME-3M melanoma): 2.69 µM | TGI (MALME-3M melanoma): 8.62 µM | GI50 (MCF7 breast): 1.87 µM | TGI (MCF7 breast): 4.95 µM | GI50 (MDA-MB-231 breast): 3.45 µM | TGI (MDA-MB-231 breast): 40.8 µM | GI50 (MDA-MB-435): 1.97 µM | TGI (MDA-MB-435): 4.17 µM | GI50 (MOLT-4 leukemia): 2.8 µM | TGI (MOLT-4 leukemia): > 100 µM | GI50 (NCI-H226 lung): 3.31 µM | TGI (NCI-H226 lung): 12.6 µM | GI50 (NCI-H23 lung): 2.13 µM | TGI (NCI-H23 lung): 5.29 µM | GI50 (NCI-H460 lung): 2.38 µM | TGI (NCI-H460 lung): 5.64 µM | GI50 (NCI-H522 lung): 2.38 µM | TGI (NCI-H522 lung): 6.17 µM | GI50 (NCI/ADR-RES ovarian): 3.34 µM | TGI (NCI/ADR-RES ovarian): 17 µM | GI50 (OVCAR-3 ovarian): 3 µM | TGI (OVCAR-3 ovarian): 11.9 µM | GI50 (OVCAR-4 ovarian): 3.33 µM | TGI (OVCAR-4 ovarian): 9.95 µM | GI50 (OVCAR-5 ovarian): 2.08 µM | TGI (OVCAR-5 ovarian): 5.29 µM | GI50 (OVCAR-8 ovarian): 3.43 µM | TGI (OVCAR-8 ovarian): 86.3 µM | GI50 (PC-3 prostate): 1.68 µM | TGI (PC-3 prostate): 4.46 µM | GI50 (SF-268 CNS): 4.97 µM | TGI (SF-268 CNS): 27.7 µM | GI50 (SF-295 CNS): 0.52 µM | TGI (SF-295 CNS): 2.56 µM | GI50 (SF-539 CNS): 0.428 µM | TGI (SF-539 CNS): 1.96 µM | GI50 (SK-MEL-2 melanoma): 2.14 µM | TGI (SK-MEL-2 melanoma): 6.37 µM | GI50 (SK-MEL-28 melanoma): 1.29 µM | TGI (SK-MEL-28 melanoma): 2.85 µM | GI50 (SK-MEL-5 melanoma): 2.64 µM | TGI (SK-MEL-5 melanoma): 6.99 µM | GI50 (SK-OV-3 ovarian): 4.83 µM | TGI (SK-OV-3 ovarian): 26.6 µM | GI50 (SN12C renal): 2.88 µM | TGI (SN12C renal): 9.83 µM | GI50 (SNB-19 CNS): 2.59 µM | TGI (SNB-19 CNS): 13.8 µM | GI50 (SNB-75 CNS): 1.73 µM | TGI (SNB-75 CNS): 8.25 µM | GI50 (SR leukemia): 2.64 µM | TGI (SR leukemia): > 100 µM | GI50 (SW-620 colon): 2.07 µM | TGI (SW-620 colon): 5.28 µM | GI50 (T-47D breast): 3.62 µM | TGI (T-47D breast): 27.6 µM | GI50 (TK-10 renal): 3.39 µM | TGI (TK-10 renal): 10.1 µM | GI50 (U251 CNS): 1.41 µM | TGI (U251 CNS): 4.53 µM | GI50 (UACC-257 melanoma): 2.43 µM | TGI (UACC-257 melanoma): 6.7 µM | GI50 (UACC-62 melanoma): 2.24 µM | TGI (UACC-62 melanoma): 5.19 µM | GI50 (UO-31 renal): 2.03 µM | TGI (UO-31 renal): 5.47 µM
